{"source": "paper PMC7901650", "about": "“Garcinoic Acid Is a Natural and Selective Agonist of Pregnane X Receptor” (Journal of Medicinal Chemistry, 2020)", "key": {"[1]": {"system": "HT29-MTX", "assay": "PXR and CYP3A4 protein expression in HT29-MTX cells", "assay_type": "cell-based", "conditions": "24 h, 1 to 25 μM", "method": "(§1) HepG2 (human hepatoma cell line; ATCC HB-8065, Manassas, VA) and HepaRG (HPRGC10, Thermo Fisher Scientific) cells were maintained in culture as previously described.[47] Experiments were performed between passages 2 and 10. Cell viability, clonogenic activity, and apoptotic cell death were assessed as previously described (see Figure S2).[58],[59] HT29 human colorectal adenocarcinoma cells (ATCC HTB-38) and its mucous-secreting HT29-MTX subclone (Sigma-Aldrich) were used as intestinal cell models. HT29 cells were cultured in RPMI (Invitrogen; Life Technologies) containing 10% FBS (v/v) and 1% (v/v) L-glutamine. HT29-MTX cells (from Sigma-Aldrich) were cultured in DMEM supplemented with 2 mM glutamine, 1% nonessential amino acids, and 10% FBS. […]\n(§2) Cells were harvested and lysed in ice-cold cell lysis buffer (Cell Signaling Technology) and 20 μL/mL protease inhibitor cocktail (Roche). […] After incubation in ice for 1 h and centrifugation (12 000 rpm for 20 min at 4 °C), the supernatant was recovered, and total proteins were quantified by the BCA assay kit (Pierce, Thermo Fisher Scientific). […] The band intensity was analyzed using Gel Pro analyzer Software. […]\n(§3) PXR and CYP3A4 protein was assessed by immunoblot (20 µg total protein loading) in HT29 cells (from ATCC) were cultured in RPMI (Invitrogen; Life Technologies) containing 10% FBS ( v/v) and 1% ( v/v) L-glutamine. […]"}, "[2]": {"system": "C57BL/6 wild-type male mice", "assay": "Acute toxicity in mice after single oral bolus", "conditions": "100 mg single bolus by oral gavage, 24 h after the treatment"}, "[3]": {"system": "RAR", "assay": "AlphaScreen nuclear receptor panel, RAR", "assay_type": "biochemical, human", "excerpt": "(§4) Ligand binding activity of GA (1) was explored via AlphaScreen technology over a panel of NRs that, along with hPXR (Figure 1A), included major human endocrine and metabolic receptors, such as the retinoid X receptor (RXR), constitutive androstane receptor (CAR), farnesoid X receptor (FXR), vitamin D receptor (VDR), liver X receptor (LXR) forms α and β, and the PPAR isoforms α, δ, and γ (see Figure S1). GA (1) was compared to its analogue δ-tocotrienol (5), the vitamers 3 and 4, their short-chain metabolites (SCMs) α-CEHC (10) and γ-CEHC (11), and the LCMs 2 and 8 (Chart 1). The test was performed in the presence of reference standard agonists for the different NRs.\n(§5) The activity of nuclear receptors was determined using AlphaScreen technology, a recruitment coactivator assay previously described.[56]\n(§6) (A) The test was carried out at 10 μM compound final concentration. Ligand binding to nuclear receptors was expressed as luminescence units. […] Vehicle was assessed to obtain a measure of background signal (basal evaluation). […] In presence of the ligand, the nuclear receptor LBD undergoes conformational changes, binds to the coactivator and the chemical energy is transferred from donor to acceptor beads in order to produce a signal, i.e. luminescence; in this case the compounds behaves as agonist, changing the conformation of the receptor to recruit the coactivator. […]"}, "[4]": {"system": "HT29", "assay": "PXR and CYP3A4 protein expression in HT29 cells", "assay_type": "cell-based", "conditions": "HT29, 24 h, 1 to 25 μM", "method": "as §1, §2, §3"}, "[5]": {"system": "PPARs", "assay": "AlphaScreen nuclear receptor panel, PPARs", "assay_type": "biochemical, human", "excerpt": "as §4, §5, §6"}, "[6]": {"biological_target": "T1, recombinant human Pgp (Homo sapiens, UniProt P08183)", "T1 construct": "purchased Promega", "T1 sequence (P08183 whole entry)": "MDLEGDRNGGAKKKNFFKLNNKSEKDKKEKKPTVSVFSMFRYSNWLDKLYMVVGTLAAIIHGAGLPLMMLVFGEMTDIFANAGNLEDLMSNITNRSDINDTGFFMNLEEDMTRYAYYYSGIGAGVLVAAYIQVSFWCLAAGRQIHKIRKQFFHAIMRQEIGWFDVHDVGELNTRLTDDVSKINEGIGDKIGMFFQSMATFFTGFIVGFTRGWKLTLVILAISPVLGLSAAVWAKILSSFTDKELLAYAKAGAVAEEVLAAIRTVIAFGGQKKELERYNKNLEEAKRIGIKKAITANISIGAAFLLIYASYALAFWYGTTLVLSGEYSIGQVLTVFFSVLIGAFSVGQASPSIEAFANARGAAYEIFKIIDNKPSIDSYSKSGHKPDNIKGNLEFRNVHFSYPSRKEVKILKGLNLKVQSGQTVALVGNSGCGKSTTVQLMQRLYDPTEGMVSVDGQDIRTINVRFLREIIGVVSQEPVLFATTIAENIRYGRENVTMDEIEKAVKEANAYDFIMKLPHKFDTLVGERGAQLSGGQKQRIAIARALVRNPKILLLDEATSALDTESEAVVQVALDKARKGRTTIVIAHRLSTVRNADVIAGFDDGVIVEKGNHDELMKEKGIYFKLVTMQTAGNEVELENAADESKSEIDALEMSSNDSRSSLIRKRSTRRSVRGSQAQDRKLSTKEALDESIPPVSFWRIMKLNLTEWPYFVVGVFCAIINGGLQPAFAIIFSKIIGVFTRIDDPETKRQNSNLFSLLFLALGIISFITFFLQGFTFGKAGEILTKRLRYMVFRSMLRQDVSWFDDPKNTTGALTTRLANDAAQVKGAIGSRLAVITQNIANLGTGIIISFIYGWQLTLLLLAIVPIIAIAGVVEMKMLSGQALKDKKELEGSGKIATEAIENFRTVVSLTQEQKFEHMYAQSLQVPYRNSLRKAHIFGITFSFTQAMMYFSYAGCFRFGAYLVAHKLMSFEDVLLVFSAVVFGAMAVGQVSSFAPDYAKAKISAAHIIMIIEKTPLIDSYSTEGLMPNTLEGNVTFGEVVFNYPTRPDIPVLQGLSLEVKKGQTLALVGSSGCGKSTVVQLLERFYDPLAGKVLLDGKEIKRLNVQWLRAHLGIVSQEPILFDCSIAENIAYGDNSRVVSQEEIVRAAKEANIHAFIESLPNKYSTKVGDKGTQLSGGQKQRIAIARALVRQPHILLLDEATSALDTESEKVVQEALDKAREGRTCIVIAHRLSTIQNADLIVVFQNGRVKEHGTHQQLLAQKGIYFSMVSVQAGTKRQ", "assay": "P-glycoprotein activity assay (Pgp-Glo)", "assay_type": "biochemical", "conditions": "50 nM to 25 μM", "excerpt": "To evaluate the effects of GA on recombinant human Pgp in a cell membrane fraction, we used the Pgp-Glo assay system (Promega, Madison, WI), according to the manufacturer’s instruction. The assay relies on the ATP dependence of the light-generating reaction of firefly luciferase."}}}
{"molecule": "C/C(=C\\CC/C(C)=C/CC[C@]1(C)CCc2cc(O)cc(C)c2O1)CC/C=C(\\C)C(=O)O", "note": "[GA (1), (2E,6E,10E)-13-[(2R)-6-hydroxy-2,8-dimethyl-chroman-2-yl]-2,6,10-trimethyltrideca-2,6,10-trienoic acid]", "values": [{"measurement": "PXR and CYP3A4 protein expression", "setting": "[1]", "result": "increase"}, {"measurement": "Mortality", "setting": "[2]", "result": 100, "unit": "%"}, {"measurement": "Response on RAR", "setting": "[3]", "result": "No response"}, {"measurement": "PXR and CYP3A4 protein expression", "setting": "[4]", "result": "increase"}, {"measurement": "Response on PPARs", "setting": "[5]", "result": "No response"}, {"measurement": "P-glycoprotein (MDR1) activity", "setting": "[6]", "result": "increased in a dose–dose-dependent manner"}]}
